Results taken from patent US20130059096A1, “METHODS AND COATINGS FOR TREATING BIOFILMS” (President and Fellows of Harvard College, priority 2010, published 2013).
Read-outs that look alike come from different tables or passages of the source.

Legend:
[1] = test system: S. aureus (strain SCO1); test: Biofilm formation on polystyrene, crystal violet staining; format: cell-based, Staphylococcus aureus; conditions: Staphylococcus aureus, read-out: % Inhibition relative to control (0%, <50%, 50-90%, >90%)
Procedure: Crystal violet staining Crystal violet staining was done as described previously (O'Toole et al., Mol. […] Wells were stained with 500 μl of 1.0% Crystal-violet dye, rinsed twice with 2 ml double-distilled water and thoroughly dried.
The effect of D-amino acids on biofilm formation by other bacteria was examined. The pathogenic bacterium Staphylococcus aureus forms biofilms on plastic surfaces (Otto, Curr. Top. Microbiol. Immunol. 322:207 (2008)), which can be detected by washing away unbound cells and staining the bound cells with crystal violet. […] Additionally added to the wells were no amino acids (untreated), D-tyrosine (50 μM) or the D-amino acid mixture ([…] each). Cells bound to the polystyrene were visualized by washing away unbound cells and then staining with crystal violet.
(§1) For experiments reported in Table 1, the organism/strain was S.a. Harvard SCO1, the culture medium was TSB and the cell inoculation was at 2×10^9 cfu. For experiments reported in Table 2, the organism/strain was […], the culture medium was M63 and the cell inoculation was at 1.5×10^9 cfu. Biofilm was visualized using the crystal violet method. The data is shown below in Tables 1 and 2:
For experiments reported in Tables 3 and 4, the organism/strain was S.a. Harvard SCO1, the culture medium was TSB and the cell inoculation was at 2×10^9 cfu. Biofilm was visualized using the crystal violet method.

[2] = test system: Bacillus subtilis NCIB3610; test: Pellicle (biofilm) formation in liquid biofilm-inducing medium; format: cell-based; conditions: for Inhibition of biofilm formation (FIG. 5): MSgg medium; for minimum concentration (MIC for Minimal Inhibitory Concentration) needed to prevent biofilm formation: FIG. 2B, complete inhibition of pellicle formation; for Biofilm-inhibition assay for B. subtilis: summary statement, concentration not given
Procedure: (§2) Colony and pellicle formation. For colony formation on solid medium, cells were first grown to exponential growth phase in LB broth and 3 μl of culture were spotted onto solid MSgg medium containing 1.5% Bacto agar. The plates were incubated at 23° C. For pellicle formation in liquid medium, cells were grown to exponential phase and 6 μl of culture were mixed with 6 ml of medium in a 12-well plate (VWR). Plates were incubated at 23° C. Images of colonies and pellicles were taken using a SPOT camera (Diagnostic Instruments, USA).
Preparing conditioned medium. Cells were grown in LB medium to exponential phase. 0.1 ml of culture was added to 100 ml of MSgg medium and grown without shaking in a 500 ml beaker at 23° C. Next, pellicles and conditioned medium was collected by centrifugation at 8,000 rpm for 15 min. The conditioned medium (supernatant fluid) was removed and filtered through a 0.22 μm filter. The filtrates were stored at 4° C. For further purification the biofilm-inhibiting activity was fractionated on a C-18 Sep Pak cartridge using stepwise elution of 0% to 100% methanol with steps of 5%.
To investigate whether mature biofilms produce a factor that triggers biofilm disassembly, the effect of concentrated and partially purified extracts of conditioned medium on pellicle formation when added to fresh medium was assayed. To this end, conditioned medium from an eight-day-old culture was applied to a C18 Sep Pak column. Concentrated eluate from the column was then added to a freshly inoculated culture. […] Further purification of the factor was achieved by eluting the cartridge in step-wise fashion with increasing concentrations of methanol.
Next, the minimum concentration (MIC for Minimal Inhibitory Concentration) needed to prevent biofilm formation was determined.

[3] = test system: P.a. Harvard PA14; test: Biofilm (colony architecture) formation on defined M63 medium; format: cell-based, Pseudomonas aeruginosa; conditions: 500 μM
Excerpt: Similarly to Bacillus subtilis, Pseudomonas aeruginosa forms a complex architecture on defined medium. These complex structures require the proper formation and assembly of the extra-cellular matrix. […] For these experiments, the organism/strain was P.a. Harvard PA14, the culture medium was M63 and the cell inoculation was at 1.5×10^9 cfu.

[4] = test system: Pseudomonas aeruginosa PA14; test: Biofilm formation on polystyrene, crystal violet staining; format: cell-based; conditions: Pseudomonas aeruginosa, read-out: % Inhibition relative to control (0%, <50%, 50-90%, >90%)
Procedure: Crystal violet staining Crystal violet staining was done as described previously (O'Toole et al., Mol. Microbiol. 30:295 (1998)) except that the cells were grown in 6-well plates. Wells were stained with 500 μl of 1.0% Crystal-violet dye, rinsed twice with 2 ml double-distilled water and thoroughly dried.
P. aeruginosa strain […] was grown in 12-well polystyrene plates for 48 hours at 30° C. in M63 medium containing glycerol (0.2%) and Casamino acids (20 μg/ml). Additionally added to the wells were no amino acids (untreated), D-tyrosine or the D-amino acid equimolar mixture. Cells bound to the polystyrene were visualized by washing away unbound cells and then staining with crystal violet. Wells were stained with 500 μl of 1.0% Crystal-violet dye, rinsed twice with 2 ml double-distilled water and thoroughly dried.
as §1, with “method.” for “method. The data is shown below in Tables 1 and 2:”

[5] = test system: Bacillus subtilis; test: Cell growth in MSgg medium with shaking; format: cell-based; conditions: 8.5 mM
[6] = test system: matrix operons eps and yqxM; test: Expression of PyqxM-lacZ and PepsA-lacZ (β-galactosidase activity); format: cell-based, Bacillus subtilis; conditions: 8.5 mM, strains FC122 and FC5, MSgg, shaking
Procedure: Assays of β-galactosidase activity. Cells were cultured in MSgg medium at 37° C. in a water bath with shaking 1 ml of culture was collected at each time point. β-galactosidase activity was determined as described previously (Chai et al., Mol. Microbiol. 67:254 (2008)).

[7] = test system: Bacillus subtilis NCIB3610; test: Colony biofilm formation on solid MSgg medium; format: cell-based; conditions: 8.5 mM, 4 days
Procedure: as §2

[8] = test system: Pseudomonas aeruginosa; test: Attached single cells in well plate, Syto-9 staining; format: cell-based; conditions: Pseudomonas aeruginosa, 12 h, read-out: % Inhibition relative to control (0%, <50%, 50-90%, >90%)
Procedure: An alternative method to observe biofilm formation on a 6 well plate with or without D-amino acids and using Syto-9 staining was as follows: Pseudomonas aeruginosa biofilms were washed twice with PBS and then fixed for at least an hour in 5% Glutaraldehyde in PBS. The fixed biofilms were then rinsed once again with PBS and soaked in 0.1% v/v Triton X-100 in PBS (PBST) for 15 minutes. The solution was exchanged with 0.1 nM […] (Invitrogen) in cold PBST and gently rocked in the dark for at least 15 minutes. Fluorescence images of the biofilms were captured with a Leica DMRX compound microscope using a Xe lamp and a K3 Leica filtercube. […] The amount of attached single cells was quantified using image J. The decrease in the amount of cells attached to the epoxy surfaces soaked with D-aa compared with the L-aa control was substantially more.

[9] = Table 3, 10 μM, 24 h/37° C., polystyrene, TSB
[10] = Table 3, 100 μM, 24 h/37° C., polystyrene, TSB
[11] = Table 3, 500 μM, 24 h/37° C., polystyrene, TSB
[12] = PA14, Table 2, 100 nM, 48 h/30° C., polystyrene, M63
[13] = Table 1, 100 nM, 24 h/37° C., polystyrene, TSB
[14] = Table 1, 10 μM, 24 h/37° C., polystyrene, TSB
[15] = Table 1, 100 μM, 24 h/37° C., polystyrene, TSB
[16] = Table 1, 500 μM, 24 h/37° C., polystyrene, TSB

In the case of `O=C(O)[C@H]1CCCN1` [D-proline], the inhibition at 10 µM [1, 9] is reported as < 50%, the inhibition at 100 µM [1, 10] is reported as < 50% and the inhibition at 500 µM [1, 11] is reported as > 90%. For the same compound, the inhibition at 1000 µM ([1]; Table 3, 1 mM, 24 h/37° C., polystyrene, TSB) was > 90%.
`N[C@H](Cc1c[nH]c2ccccc12)C(=O)O` [D-tryptophan] was tested, and the “Inhibition of biofilm formation (FIG. 5)” value ([2]; 0.5 mM, 3 days) was “active in inhibiting biofilm formation”, the “minimum concentration (MIC for Minimal Inhibitory Concentration) needed to prevent biofilm formation” value [2] was “around 1 mM” and the “Biofilm-inhibition assay for B. subtilis” value [2] was “significant inhibition of biofilm growth”. The “Biofilm formation on defined medium (FIG. 20)” value (from here on “Biofilm formation … (FIG. 20)”) [3] was “inhibited biofilm formation”, the inhibition at 0.1 µM ([4]; PA14, 48 h) was 0% and the inhibition at 10 µM ([4]; PA14, 48 h) was < 50%. It also gave an inhibition at 100 µM ([4]; PA14, 48 h) of 50 to 90%, an inhibition at 500 µM ([4]; PA14, 48 h) of 50 to 90% and an inhibition at 0.1 µM ([1]; 24 h) of 0%. For the same compound, the inhibition at 10 µM ([1]; 24 h) was 0%, the inhibition at 100 µM ([1]; 24 h) was < 50% and the inhibition at 500 µM ([1]; 24 h) was < 50%.
In the case of `CC(C)C[C@@H](N)C(=O)O` [D-leucine], the “Cell growth (FIG. 8)” value [5] is reported as “substantially the same as the untreated sample”, the “Effect on pellicle formation (FIG. 2A)” value ([2]; 8.5 mM, freshly inoculated culture, biofilm-inducing medium, 3 days) is reported as “significant inhibition of biofilm growth” and the “minimum concentration (MIC for Minimal Inhibitory Concentration) needed to prevent biofilm formation” value [2] is reported as “around 1 mM”. The “Biofilm-inhibition assay for B. subtilis” value [2] was “significant inhibition of biofilm growth”, the inhibition at 0.1 µM [4, 12] was 0% and the inhibition at 10 µM ([4]; PA14, Table 2, 10 μM, 48 h/30° C., polystyrene, M63) was 0%. For the same compound, the inhibition at 100 µM ([4]; PA14, Table 2, 100 μM, 48 h/30° C., polystyrene, M63) was 0%, the inhibition at 500 µM ([4]; PA14, Table 2, 500 μM, 48 h/30° C., polystyrene, M63) was 0% and the inhibition at 0.1 µM [1, 13] was 0%. For the same compound, the inhibition at 10 µM [1, 14] was 0%, the inhibition at 100 µM [1, 15] was 0% and the inhibition at 500 µM [1, 16] was 0%. For the same compound, the “yqxM and eps expression (FIG. 9A, 9B)” value [6] was “substantially the same as the untreated sample” and the “Biofilm formation on solid MSgg medium (FIG. 6)” value [7] was “inhibited biofilm formation”.
For `CSCC[C@H](N)C(=O)O` [L-methionine, reference compound], the “Inhibition of biofilm formation (FIG. 5)” value ([2]; 5 mM, 3 days) was “Only the D-amino acids were active”.
For `CSCC[C@@H](N)C(=O)O` [D-methionine], the “Inhibition of biofilm formation (FIG. 5)” value ([2]; 2 mM, 3 days) was “active in inhibiting biofilm formation”, the “minimum concentration (MIC for Minimal Inhibitory Concentration) needed to prevent biofilm formation” value [2] was “around 1 mM” and the “Biofilm-inhibition assay for B. subtilis” value [2] was “significant inhibition of biofilm growth”. The inhibition at 0.1 µM [4, 12] was 0%, the inhibition at 0.1 µM [1, 13] was 0% and the inhibition at 10 µM [1, 14] was 0%. The inhibition at 100 µM [1, 15] was 0% and the inhibition at 500 µM [1, 16] was 0%.
For `N[C@@H](Cc1ccc(O)cc1)C(=O)O` [L-tyrosine, reference compound], the “Biofilm formation … (FIG. 20)” value [3] was “did not” and the inhibition at 500 µM [8] was 0%.
`C[C@@H](N)C(=O)O` [D-alanine] was tested, and the “Biofilm-inhibition assay for B. subtilis” value [2] was “not effective”.
`N[C@H](Cc1ccccc1)C(=O)O` [D-phenylalanine] was tested, and the “Biofilm-inhibition assay for B. subtilis” value [2] was “not effective”, the inhibition at 10 µM [1, 9] was < 50% and the inhibition at 100 µM [1, 10] was < 50%. For the same compound, the inhibition at 500 µM [1, 11] was > 90%.
In the case of `N[C@@H](Cc1c[nH]c2ccccc12)C(=O)O` [L-tryptophan, reference compound], the “Inhibition of biofilm formation (FIG. 5)” value ([2]; 5 mM, 3 days) is reported as “Only the D-amino acids were active” and the “Biofilm formation … (FIG. 20)” value [3] is reported as “did not”.
